Measured values from patent US9546201B2, “MUC-1 cytoplasmic domain peptides as inhibitors of cancer” (DANA-FARBER CANCER INSTITUTE, INC., priority 2008, dated 2017).
Where no end group is shown, it is not given here. [ ]: non-standard residue; d: D form.

Tests used:
[1] = tested on: H-1975 non-small cell lung carcinoma cell line; settings: 5 μM, 3 days
Protocol: H-1975 non-small cell lung carcinoma cell line was grown in DMEM with 10% heat-inactivated fetal bovine serum with 100 units/mL penicillin, 100 μg/ml streptomycin and 2 mmol/L L-glutamine. Cells were re-seeded one day before treatments. Cells were treated with 5 μM GO-200-2B for 3 days and cell viability was determined by trypan blue exclusion. Y-axis represents percent viability as compared to control untreated cells.
H1975 non-small cell lung carcinoma cells were treated with 5 μM of different MUC1-CD CQC-region peptides for 6 days. Viable cell number on day 6 was determined by trypan blue exclusion. […] Y-axis represents relative growth as compared to control untreated cells.
Moreover, another non-small cell lung carcinoma cell line, H-1975, was treated with 5 μM GO-200-2B for 3 days and monitored for cell growth as well as cell death.
Multiple tumor cell lines (ZR-75-1 Hormone-dependent Breast Carcinoma; MDA-MB-231 Triple-Negative Breast Carcinoma; A549 Non-small Cell Lung Carcinoma; H-1975 Non-small Cell Lung Carcinoma) were grown in RPMI-1640 supplemented with 10% heat-inactivated fetal bovine serum, 100 units/mL penicillin and 100 μg/mL streptomycin and 2 mmol/L L-glutamine. […] The proliferation of different cell lines was compared with cells treated with vehicle only.

[2] = tested on: ZR-75-1 cells; test: In vitro cytotoxicity and combination assays (MTS, CombiTool combination index); type: cell-based, human
Protocol: FIGS. 15A-D. Effects of GO-203 in combination with different anti-cancer drugs. ZR-75-1 cells were exposed to the indicated concentrations of Cisplatin (FIG. 15A), Doxorubicin (FIG. 15B), rh-TNF-α (FIG. 15C) and Taxol (FIG. 15D) alone and in combination with GO-203. The treatment was sequential for Cisplatin, Doxorubicin and Taxol where cells were exposed to these agents for 72 h followed by treatment with 5 μM of GO-203 for 72 h. In studies with rh-TNF, cells were exposed concomitantly to different concentrations of rh-TNF alone and in combination with 5 μM of GO-203 for 72 h. The MTS assay was used to determine the cell survival. For all panels, the Y-axis represents percent growth as compared to control untreated cells.
FIG. 16. GO-203 is additive or synergistic with anti-cancer agents. The plots show combination indexes against different effect levels (fraction affected). The effect level was obtained by treating cells with the indicated combinations of anti-cancer drugs and GO-203. Y-axis represents—fold growth as compared to control untreated cells.
Cells were seeded in a 96-well flat-bottomed microtiter plate (Fisher) at 1000 cells per well for a 6-day experiment or at 3000 cells per well for a 3-day experiment. The cells were then cultured for 24 h. Anti-cancer drugs and GO-203 were diluted to the indicated concentrations and added to the cells. GO-203 (5 μmol/L) was added every 24 h for 72 h. Cell viability was determined by adding MTS reagent to the cells and reading the absorbance at 490 nm by a microplate reader.
The IC50 values for all the anti-cancer drugs were determined by non-linear regression analysis using Graphpad Prism (GraphPad Software, San Diego Calif.). The CombiTool computer program (version 2.001, IMB Jena Biocomputing Group) was used to calculate the combination index within a dose range in the presence of 5 μmol/L GO-203.
The combination index (CI) values generated by the CombiTool program were plotted against the fraction affected by the drug combination. The CI values were close to 1 for Cisplatin and GO-203, indicating an additive interaction. The CI values obtained for Doxorubicin (25, 50, 100, 200 nM), Taxol (25, 50, 100 nM) and TNF (10, 20, 40 ng/ml) with GO-203 were less than 1, supporting a strong additive effect or synergism (FIGS. 15A-D and 16).

[3] = tested on: ZR-75-1 breast carcinoma cells; test: ZR-75-1 proliferation with GO-203 analogs (trypan blue exclusion); type: cell-based, human; settings: 5 μM every day for 4 days
Protocol: FIG. 10. Effect of different MUC1-CD CQC-region peptides on the growth of hormone-dependent breast carcinoma cells. To determine whether exposure to different MUC1-CD CQC-region containing peptides affect growth, ZR-75-1 breast carcinoma cells were treated with 5 μM of different peptides for 4 days and monitored for cell proliferation. […] Y-axis represents percent growth inhibition as compared to control untreated cells.
FIG. 14. Effect of Shorter GO-203 peptides on proliferation of ZR-75-1 Breast Cancer Cells. Human ZR-75-1 breast cancer cells were grown in RPMI1640 supplemented with 10% heat-inactivated fetal bovine serum, 100 units/ml penicillin, 100 μg/ml streptomycin. Cells were treated with different peptides at 5 μM every day for four days and cell viability was determined by trypan blue exclusion.
Multiple tumor cell lines (ZR-75-1 Hormone-dependent Breast Carcinoma; MDA-MB-231 Triple-Negative Breast Carcinoma; A549 Non-small Cell Lung Carcinoma; H-1975 Non-small Cell Lung Carcinoma) were grown in RPMI-1640 supplemented with 10% heat-inactivated fetal bovine serum, 100 units/mL penicillin and 100 μg/mL streptomycin and 2 mmol/L L-glutamine. Cells were treated separately with 5 μM of different analogs of GO-203 (FIG. 8) for 3 to 7 days and viability was determined by trypan blue exclusion. The proliferation of different cell lines was compared with cells treated with vehicle only.

[4] = target: T1, His-MUC1-CD (Homo sapiens, UniProt P15941); settings: BIAcore analysis, Leng et al., 2007; read-out: dissociation constant (Kd) of MUC1-CD dimers; cited from earlier work
T1 sequence (P15941 1184-1255): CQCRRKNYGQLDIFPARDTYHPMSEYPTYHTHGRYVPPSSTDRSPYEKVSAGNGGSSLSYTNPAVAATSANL

[5] = tested on: multiple carcinoma cell lines; test: Inventors' recent studies of MUC1 C-terminal peptides on carcinoma cell lines; type: cell-based; settings: L-amino acid peptide
Description: However, these MUC1-C-terminal peptides consists of L-amino acids. […] Consequently, they have generated an all-dextro form of the above described shorter MUC1 C-terminal peptide, in which the L-amino acids were changed to D-amino acids (GO-203). Moreover, to determine the minimum amino acid residues from the MUC1-C-terminal region that are required to retain the cell killing activity, they have also generated many different versions of GO-203 as described in FIG. 8.

[6] = tested on: DU145 prostate carcinoma cells; test: DU145 cell growth by MTT assay; type: cell-based; settings: 5 μM, 4 days (FIG. 7)
Protocol: FIG. 7. MUC1 7-mer inhibits prostate carcinoma. DU145 prostate carcinoma cells were treated with 5 μM CQC short (7-mer; SEQ ID NO: 53) or 5 μM CQC long (15-mer; SEQ ID NO: 63) peptides for 4 days. Cell growth was measured by MTT assay. The Y-axis represents percent growth inhibition compared to untreated cells (control).

CC(=O)N[C@@H](C)C(=O)N[C@@H](CCCCN)C(=O)N[C@@H](CCCCN)C(=O)N[C@@H](Cc1ccc(O)cc1)C(=O)N[C@@H](CC(C)C)C(=O)N[C@@]1(C)CCCC=CCCCC2(CCCC=CCCC[C@@](C)(C(=O)N[C@@H](CCCNC(=N)N)C(=O)N[C@@H](CCCCN)C(=O)N[C@@H](CC(N)=O)C(=O)N[C@@H](Cc3ccc(O)cc3)C(N)=O)NC(=O)[C@H](CS)NC(=O)[C@H](CCC(N)=O)NC(=O)[C@H](CS)NC2=O)NC(=O)[C@H](C)NC(=O)[C@H](CC(C)C)NC(=O)[C@H](C)NC1=O (stereo partly drawn) [GO-200-2B]
cell death [1]: significant induction of cell death

GO-203: all-dextro form of the shorter MUC1 C-terminal peptide CQCRRKN (SEQ ID NO:53) ([dC][dQ][dC][dR][dR][dK][dN]; cysteine pairing not given here)
combination index (CI) with Cisplatin ([2]; Cisplatin 72 h followed by 5 μM GO-203 for 72 h): ~1 | combination index (CI) with Doxorubicin ([2]; Doxorubicin 25, 50, 100, 200 nM, followed by 5 μM GO-203): less than 1 | combination index (CI) with Taxol ([2]; Taxol 25, 50, 100 nM, followed by 5 μM GO-203): less than 1 | combination index (CI) with TNF ([2]; rh-TNF 10, 20, 40 ng/ml concomitantly with 5 μM GO-203 for 72 h): less than 1 | growth of ZR-75-1 cells [3]: significant inhibition of growth

GO-207: shorter GO-203 peptide, SEQ ID NO:4 (CQCRRK)
growth of ZR-75-1 cells [3]: significant inhibition of growth

GO-208: shorter GO-203 peptide, SEQ ID NO:50 (CQCRR)
growth of ZR-75-1 cells [3]: significant inhibition of growth

GO-209: shorter GO-203 peptide, SEQ ID NO:54 (CQCR)
growth of ZR-75-1 cells [3]: significant inhibition of growth

MUC1-CD: 72-amino acid MUC1 cytoplasmic domain (SEQ ID NO:1); forms dimers
Kd [4]: 33 nM

MUC1/CQC 7-mer: shorter MUC1-C-terminal peptide CQCRRKN of L-amino acids (7-mer; SEQ ID NO: 53)
killing of tumor cells [5]: active in killing tumor cells | in vitro activity relative to the 15-mer [6]: as potent as the MUC1/CQC 15-mer
